pIC50: −log10 of the molar value.
Assays:
Type in all cases: cell-based
human Nav1.5 [1] = biological target: T1, human Nav1.5 (Homo sapiens (Human), UniProt Q14524); assay: Qpatch automated patch-clamp, peak Nav1.5 current inhibition, 1 Hz sinus rate, ventricular condition (holding potential -100 mV); details: CHO-K1 cells stably expressing human Nav1.5, without ATX-II
From the text: (§1) Electrophysiology was used to measure the ionic currents in isolated living cells using automated patch-clamp recording, performed using an automated patch-clamp machine called Qpatch (Sophion Bioscience). Two different assay conditions were used to identify compounds with atrial-selective potential. The 5-Hz AF-like assay has more depolarized holding potential at −85 mV to mimic atrial resting membrane potential (RMP) and was used to identify compounds of strong rate-dependence. Active, rate-dependent compounds were then screened at 1 Hz (i.e., sinus rate) at the holding potential of −100 mV to mimic the ventricular scenario and help identify compounds with the largest potency separation or attenuation from the 5-Hz AF-like assay. Such compounds have the potential for treating AF without the QRS liability inherent to Class Ic drugs.
(§2) The sodium current conducted through a cell (via Nav1.5) or electrical signals were processed through a low-pass filter at 5 KHz, re-digitalized and acquired at 20 kHz. Series resistance was not compensated and leak subtraction was performed.
(§3) 1 to 3 million Chinese Hamster Ovary cells (also known as CHO-K1) stably expressing human Nav1.5 were seeded into […] culture flasks with 25 mL medium (consisting of Gibco Dulbecco's Modified Eagle Medium as a base medium with 1% MEM non-essential amino acids, 400 μg/mL Geneticin, 5 μg/mL puromycin and 10% fetal bovine serum) 48-72 hours prior to the experiments. On the day of the experiment, cells were washed once with phosphate-buffered saline (also known as PBS; Gibco) detached with Detachin™ (Genlantis), and re-suspended in CHO—S-SFM II media (Gibco) at 200,000 cells/mL. The CHO—S-SFM II was replaced with assay solutions prior to the assays. Whole-cell currents were recorded at room temperature in the whole-cell configuration. The external aqueous assay solution (pH=7.4; Osm=307-315) contained the following (the concentration for each component is expressed in parentheses in mM): NaCl (140 mM), KCl (4 mM), CaCl2) (2 mM), MgCl2 (1 mM), 4-(2-hydroxyethyl)-1-piperazineethanesulfonic acid, also known as HEPES (10 mM), and glucose (5 mM). The internal aqueous assay solution (pH=7.2; Osm=292-295) contained the following (the concentration for each component is expressed in parentheses in mM): CsF (110 mM), CsCl (10 mM), NaCl (10 mM), HEPES (10 mM), and ethylene glycolbis(β-aminoethyl ether)-N,N,N′,N′-tetraacetic acid, also known as EGTA (10 mM).
(§4) To assess peak Nav1.5 current inhibition mimicking a ventricular condition at sinus rate with or without ATX-II (Nav1.5 IC50 (1 Hz, ATXII) (μM) or (1 Hz, Sinus Rate) (μM)), compounds were first prepared at 10 mM in DMSO, and cells were pre-incubated with test compounds at each concentration for 3 min. in an ascending order of 0, 0.37, 1.1, 3.3, 10 and 30 uM. In the assay with ATX-II (Alomone Labs), 50 nM ATX-II was included during the 3-min. compound incubation. A square pulse (−10 mV; 400 ms and a holding potential at −100 mV) was run at 1 Hz for 25 s until no further inhibition or Nav1.5 current change was observed. The percent inhibition (expressed as ([Iafter compound treatment/Ibefore compound treatment]×100%) is calculated by normalizing the peak current amplitude at the last pulse of each of the 6 compound concentrations by the amplitude before exposure to the test compound. The compiled data was further normalized by vehicle control (DMSO) to account for Nav1.5 current run-down, and IC50 was calculated by Matlab (MathWorks, USA).

human Nav1.5 [2] = biological target: T1, human Nav1.5; assay: Qpatch automated patch-clamp, peak Nav1.5 current inhibition, 5-Hz AF-like assay (holding potential -85 mV); details: CHO-K1 cells stably expressing human Nav1.5, holding potential -85 mV, Table 5, read-out: Nav1.5 IC50 (5 Hz, AF Rate)
How it was run: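 CHO-K1 cells stably expressing human Nav1.5, whole-cell automated patch-clamp at room temperature, CsF-based internal. Compounds pre-incubated 3 min each at ascending 0-30 μM; +10 to −85 mV ramp (150 ms) applied at 5 Hz for 12 s from −85 mV holding. IC50 from last-pulse peak current, vehicle-normalized for run-down.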

human Nav1.5 [3] = biological target: T1, human Nav1.5; assay: Qpatch automated patch-clamp, peak Nav1.5 current inhibition, 1 Hz with 50 nM ATX-II (holding potential -100 mV); details: CHO-K1 cells stably expressing human Nav1.5, read-out: Nav1.5 IC50 (1 Hz, ATXII)
From the text: as §1, §2, §3, §4

T1 sequence (Q14524 whole entry): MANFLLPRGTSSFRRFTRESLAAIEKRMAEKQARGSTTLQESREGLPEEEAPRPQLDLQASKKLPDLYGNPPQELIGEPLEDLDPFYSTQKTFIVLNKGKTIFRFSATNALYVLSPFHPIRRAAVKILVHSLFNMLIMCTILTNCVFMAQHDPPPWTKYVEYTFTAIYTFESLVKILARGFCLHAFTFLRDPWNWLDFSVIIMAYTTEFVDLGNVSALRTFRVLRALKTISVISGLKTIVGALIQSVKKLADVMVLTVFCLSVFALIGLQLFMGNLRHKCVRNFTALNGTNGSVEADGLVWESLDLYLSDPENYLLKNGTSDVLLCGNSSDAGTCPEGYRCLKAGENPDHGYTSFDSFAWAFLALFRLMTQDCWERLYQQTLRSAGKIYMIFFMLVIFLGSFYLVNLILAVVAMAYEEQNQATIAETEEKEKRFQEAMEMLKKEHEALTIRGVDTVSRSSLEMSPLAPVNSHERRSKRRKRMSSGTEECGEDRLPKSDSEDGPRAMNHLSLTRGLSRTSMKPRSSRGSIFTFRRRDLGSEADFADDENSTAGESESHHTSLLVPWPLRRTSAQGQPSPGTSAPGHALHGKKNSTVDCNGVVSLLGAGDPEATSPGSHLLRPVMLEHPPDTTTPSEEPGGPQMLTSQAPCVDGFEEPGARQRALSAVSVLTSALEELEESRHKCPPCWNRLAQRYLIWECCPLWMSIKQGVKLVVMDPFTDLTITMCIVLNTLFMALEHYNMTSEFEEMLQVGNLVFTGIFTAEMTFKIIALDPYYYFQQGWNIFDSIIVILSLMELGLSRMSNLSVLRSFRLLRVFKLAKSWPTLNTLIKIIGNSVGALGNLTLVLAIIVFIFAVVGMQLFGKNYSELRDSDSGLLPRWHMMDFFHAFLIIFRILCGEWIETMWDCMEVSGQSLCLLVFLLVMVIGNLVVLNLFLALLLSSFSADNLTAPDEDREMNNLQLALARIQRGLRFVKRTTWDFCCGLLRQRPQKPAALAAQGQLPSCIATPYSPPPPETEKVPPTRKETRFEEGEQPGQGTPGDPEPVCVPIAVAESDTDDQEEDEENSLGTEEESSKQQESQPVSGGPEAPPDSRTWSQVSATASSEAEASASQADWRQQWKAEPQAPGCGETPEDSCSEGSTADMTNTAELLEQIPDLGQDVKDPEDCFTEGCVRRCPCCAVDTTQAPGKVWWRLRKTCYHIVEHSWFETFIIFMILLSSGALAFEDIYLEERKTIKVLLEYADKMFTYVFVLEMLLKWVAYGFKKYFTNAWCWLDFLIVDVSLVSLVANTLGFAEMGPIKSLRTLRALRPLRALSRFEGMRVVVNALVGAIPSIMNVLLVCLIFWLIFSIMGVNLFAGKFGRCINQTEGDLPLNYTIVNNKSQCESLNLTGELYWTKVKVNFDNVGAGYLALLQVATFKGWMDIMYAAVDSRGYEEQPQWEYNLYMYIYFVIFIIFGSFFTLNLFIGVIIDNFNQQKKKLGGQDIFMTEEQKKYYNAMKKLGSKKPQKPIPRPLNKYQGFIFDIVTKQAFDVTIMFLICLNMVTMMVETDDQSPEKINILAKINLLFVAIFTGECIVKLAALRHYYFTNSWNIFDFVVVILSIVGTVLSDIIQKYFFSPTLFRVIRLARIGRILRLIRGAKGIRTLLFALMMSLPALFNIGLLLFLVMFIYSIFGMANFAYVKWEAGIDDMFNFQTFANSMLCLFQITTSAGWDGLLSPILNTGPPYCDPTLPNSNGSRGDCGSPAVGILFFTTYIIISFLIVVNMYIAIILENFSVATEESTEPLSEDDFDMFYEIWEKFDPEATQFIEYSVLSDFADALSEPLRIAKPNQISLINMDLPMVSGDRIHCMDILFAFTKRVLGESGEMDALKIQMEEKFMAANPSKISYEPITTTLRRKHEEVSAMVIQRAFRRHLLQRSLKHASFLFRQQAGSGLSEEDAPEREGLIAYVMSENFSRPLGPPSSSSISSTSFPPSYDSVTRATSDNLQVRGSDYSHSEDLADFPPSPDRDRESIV

Row | Structure (SMILES) | pIC50 (human Nav1.5 [1]) | pIC50 (human Nav1.5 [2]) | pIC50 (human Nav1.5 [3])
1 | CC(O)(CS(N)(=O)=O)c1cccc(-c2nnn(Cc3c(F)ccc4c3OC(F)(F)O4)n2)n1 (single isomer, unassigned) [Example 3, (R or S)-2-hydroxy-2-(6-(2-((2,2,5-trifluorobenzo[d][1,3]dioxol-4-yl)methyl)-2H-tetrazol-5-yl)pyridin-2-yl)propane-1-sulfonamide] | < 4.52 | 5.12 | –
2 | CC(O)(CS(N)(=O)=O)c1cc(-c2nnn(Cc3cc(OC(F)(F)F)ccc3F)n2)ccc1F (single isomer, unassigned) [Example 6, (R or S)-2-(2-fluoro-5-(2-(2-fluoro-5-(trifluoromethoxy)benzyl)-2H-tetrazol-5-yl)phenyl)-2-hydroxypropane-1-sulfonamide] | < 4.52 | 5.10 | –
3 | CC(O)(CS(N)(=O)=O)c1cccc(-c2nnn(Cc3cc(OC4CC4)ccc3F)n2)n1 (single isomer, unassigned) [Example 46, (R or S)-2-(6-(2-(5-cyclopropoxy-2-fluorobenzyl)-2H-tetrazol-5-yl)pyridin-2-yl)-2-hydroxypropane-1-sulfonamide] | < 4.52 | 5.08 | < 4.52
4 | CC(O)(CS(N)(=O)=O)c1cccc(-c2nnn(Cc3cccc(C(F)(F)F)c3)n2)n1 (single isomer, unassigned) [Example 40, (R or S)-2-hydroxy-2-(6-(2-(3-(trifluoromethyl)benzyl)-2H-tetrazol-5-yl)pyridin-2-yl)propane-1-sulfonamide] | < 4.52 | 4.68 | –
5 | CC(O)(CS(N)(=O)=O)c1cccc(-c2nnn(Cc3c(F)ccc4c3OC(F)(F)O4)n2)n1 (single isomer, unassigned) [Example 4, (R or S)-2-hydroxy-2-(6-(2-((2,2,5-trifluorobenzo[d][1,3]dioxol-4-yl)methyl)-2H-tetrazol-5-yl)pyridin-2-yl)propane-1-sulfonamide] | < 4.52 | 5.17 | –
6 | CC(O)(CS(N)(=O)=O)c1cccc(-c2ncn(Cc3cc(OC(F)(F)F)ccc3F)n2)n1 (single isomer, unassigned) [Example 56, (R or S)-2-(6-(1-(2-fluoro-5-(trifluoromethoxy)benzyl)-1H-1,2,4-triazol-3-yl)pyridin-2-yl)-2-hydroxypropane-1-sulfonamide] | < 4.52 | 4.80 | –
7 | CC(O)(CS(N)(=O)=O)c1cc(F)cc(-c2nnn(Cc3cc(OC(F)(F)F)ccc3F)n2)c1 (single isomer, unassigned) [Example 23, (R or S)-2-(3-fluoro-5-(2-(2-fluoro-5-(trifluoromethoxy)benzyl)-2H-tetrazol-5-yl)phenyl)-2-hydroxypropane-1-sulfonamide] | < 4.52 | 5.25 | < 4.52
8 | CC(O)(CS(N)(=O)=O)c1ccc(Cl)c(-c2nnn(Cc3cc(OC(F)(F)F)ccc3F)n2)c1 (single isomer, unassigned) [Example 8, (R or S)-2-(4-chloro-3-(2-(2-fluoro-5-(trifluoromethoxy)benzyl)-2H-tetrazol-5-yl)phenyl)-2-hydroxypropane-1-sulfonamide] | < 4.52 | 5.89 | 4.55
9 | CC(O)(CS(N)(=O)=O)c1cc(-c2nnn(Cc3cc(OC(F)(F)F)ccc3F)n2)ccc1F (single isomer, unassigned) [Example 5, (R or S)-2-(2-fluoro-5-(2-(2-fluoro-5-(trifluoromethoxy)benzyl)-2H-tetrazol-5-yl)phenyl)-2-hydroxypropane-1-sulfonamide] | < 4.52 | 5.10 | –
10 | CC(O)(CS(N)(=O)=O)c1ccc(Cl)c(-c2nnn(Cc3cc(OC(F)(F)F)ccc3F)n2)c1 (single isomer, unassigned) [Example 7, (R or S)-2-(4-chloro-3-(2-(2-fluoro-5-(trifluoromethoxy)benzyl)-2H-tetrazol-5-yl)phenyl)-2-hydroxypropane-1-sulfonamide] | 4.55 | 5.89 | 4.82
11 | CC(c1cccc(-c2nnn(Cc3cc(OC(F)(F)F)ccc3F)n2)n1)C(CO)S(N)(=O)=O (single isomer, unassigned) [Example 34, (2R or 2S, 3R or 3S)-3-(6-(2-(2-fluoro-5-(trifluoromethoxy)benzyl)-2H-tetrazol-5-yl)pyridin-2-yl)-1-hydroxybutane-2-sulfonamide] | < 4.52 | 5.66 | –
12 | CC(O)(CS(N)(=O)=O)c1cccc(-c2nnn(Cc3cc(OC4CC4)ccc3F)n2)n1 (single isomer, unassigned) [Example 47, (R or S)-2-(6-(2-(5-cyclopropoxy-2-fluorobenzyl)-2H-tetrazol-5-yl)pyridin-2-yl)-2-hydroxypropane-1-sulfonamide] | 4.57 | 5.41 | 4.89
13 | CC(O)(CS(N)(=O)=O)c1cccc(-c2ncn(Cc3cc(OC(F)(F)F)ccc3F)n2)n1 (single isomer, unassigned) [Example 55, (R or S)-2-(6-(1-(2-fluoro-5-(trifluoromethoxy)benzyl)-1H-1,2,4-triazol-3-yl)pyridin-2-yl)-2-hydroxypropane-1-sulfonamide] | < 4.52 | 4.72 | –
14 | CC(c1cccc(-c2nnn(Cc3cc(OC(F)(F)F)ccc3F)n2)n1)C(CO)S(N)(=O)=O (single isomer, unassigned) [Example 31, (2R or 2S, 3R or 3S)-3-(6-(2-(2-fluoro-5-(trifluoromethoxy)benzyl)-2H-tetrazol-5-yl)pyridin-2-yl)-1-hydroxybutane-2-sulfonamide] | 5.11 | 5.96 | –
15 | CC(c1cccc(-c2nnn(Cc3cc(OC(F)(F)F)ccc3F)n2)n1)C(CO)S(N)(=O)=O (single isomer, unassigned) [Example 32, (2R or 2S,3R or 3S)-3-(6-(2-(2-fluoro-5-(trifluoromethoxy)benzyl)-2H-tetrazol-5-yl)pyridin-2-yl)-1-hydroxybutane-2-sulfonamide] | 4.55 | 5.57 | –
16 | CC(O)(CS(N)(=O)=O)c1cccc(-c2nnn(Cc3cccc(C(F)(F)F)c3)n2)n1 (single isomer, unassigned) [Example 41, (R or S)-2-hydroxy-2-(6-(2-(3-(trifluoromethyl)benzyl)-2H-tetrazol-5-yl)pyridin-2-yl)propane-1-sulfonamide] | < 4.52 | < 4.52 | –
17 | CC(C(O)c1cccc(-c2nnn(Cc3cc(OC(F)(F)F)ccc3F)n2)n1)S(N)(=O)=O (single isomer, unassigned) [Example 51, (JR or 1S,2R or 2S)-1-(6-(2-(2-fluoro-5-(trifluoromethoxy)benzyl)-2H-tetrazol-5-yl)pyridin-2-yl)-1-hydroxypropane-2-sulfonamide] | < 4.52 | 4.60 | –
18 | CC(c1cccc(-c2nnn(Cc3cc(OC(F)(F)F)ccc3F)n2)n1)C(CO)S(N)(=O)=O (single isomer, unassigned) [Example 33, (2R or 2S,3R or 3S)-3-(6-(2-(2-fluoro-5-(trifluoromethoxy)benzyl)-2H-tetrazol-5-yl)pyridin-2-yl)-1-hydroxybutane-2-sulfonamide] | 5.17 | 5.89 | –
